# According to publication PMC11125357, “Assessment of Anticancer Properties of Argemone mexicana L. and Berberine: A Comparative Study” (Plants, 2024):
# Values joined by “and” are separate entries in the source; they are usually repeats but may differ in a detail not shown here. Equal values may be shown once. “Also recorded” adds a separate entry of the source. Marks after values point to notes of the source that are not given here.
# Columns and labels:
# [1] = ABTS scavenging test; settings: 50% decrease of ABTS radical, 734 nm, mean ± SD
# Method: (§1) The antioxidant activity was determined by the DPPH, ABTS radical scavenging, and FRAP (Ferric Reducing Antioxidant Power) methods. In the DPPH and ABTS assays, Vitamin C served as the positive control. In all treatment evaluations, the concentrations ranged from 15.63, 31.25, 62.50, […], 250, 500, and 1000 µg/mL.
# The antioxidant activity was determined using the ABTS radical scavenging method, where the antioxidant activity (free radical scavenging capacity) was quantified as IC50 in µg/mL. […] The ABTS radical scavenging assay was conducted in 96-well plastic microplates (Corning®), and the percentage inhibition of ABTS at 734 nm was calculated using Formula (8) as follows:(8) ABTS scavenging %=Abs734nm Control−Abs734 Sample/Abs734nm Control×100
# [2] = tested on: murine lymphoma (L5178Y-R) cells; experiment: MTT cell viability assay in L5178Y-R cells; assay type: cell-based; settings: Mus musculus, L5178, 72 h of incubation, mean ± SD, read-out: IC50 (µg/mL) in Cells, L5178 Y-R
# Method: (§2) The HEP-G2 cancer cell line and the normal VERO cell line were cultured in DMEM supplemented with 10% FBS, 2% NaHCO3, and HEPES. All tests performed with these cells were carried out in 96-well flat-bottom plastic microplates (Corning® Labware and Equipment, Oneonta, NY, USA) due to the adherent nature of these cells. L5178Y-R cells and PBMC were maintained in RPMI-1640 culture medium supplemented with 10% FBS and 1% antibiotic/antimycotic solution. All the tests performed with these cells were carried out in 96-well curved-bottom plastic microplates (Corning®) because these cells are non-adherent.
# (§3) Prior to the application of the treatments, the cells were incubated at 37 °C in a humidified incubator (Sanyo MCO-19AIC CO2 Incubator, Sanyo Electric Co., Ltd., Gunma-ken, Japan) with 5% CO2 for 24 h for adaptation. The cell viability was determined by MTT assay; MTT color intensity was directly associated with the number of living cells after 72 h of incubation. Mitochondrial enzymes, specifically succinate dehydrogenase, reduce MTT tetrazolium salt to form formazan; this reaction produces a purple–blue product that can be measured using spectrophotometry since the in vitro cell viability can be tested using the MTT colorimetric assay.
# [3] = tested on: murine macrophages (J774A.1 cell line); experiment: Nitric oxide production (Griess reagent); assay type: cell-based
# Method: The macrophage cultures were incubated in triplicate in 25 cm^2 tissue culture flasks (Corning Glass Works, Corning®, Oneonta, NY, USA) in a total volume of 7 mL of RPMI-1640 culture medium supplemented with 10% FBS and 1% antibiotic/antimycotic solution and maintained at 37 °C in 5% CO2. A concentration of 200 ng/mL of E. coli O26:B6 LPS served as an inflammatory-inducing agent to stimulate NO production. NO production was assessed by measuring nitrite accumulation in the supernatant using Griess reagent. A standard curve was generated using NaNO2 (1 M) to interpret the test results.
# [4] = tested on: PBMC (human peripheral blood mononuclear) cells; experiment: MTT cell viability assay in PBMC; assay type: cell-based; settings: 72 h of incubation, mean ± SD
# Method: as §2
# as §3, with “assay. Therefore, we decided to perform an MTT assay to correlate mitochondrial activity with viability. […]” for “assay.”
# [5] = tested on: VERO (monkey kidney epithelial) non-tumoral cells; experiment: MTT cell viability assay in VERO cells; assay type: cell-based, African green monkey; settings: Primates, 72 h of incubation, mean ± SD
# Method: as §2
# as §3, with “assay. Therefore, we decided to perform an MTT assay to correlate mitochondrial activity with viability. […]” for “assay.”
# [6] = tested on: human erythrocytes, AAPH-induced hemolysis; experiment: Anti-hemolytic test by the AAPH assay; assay type: cell-based; settings: Erythrocyte; protection against AAPH radical (150 mM) in human erythrocytes, mean ± SD
# Method: The AAPH inhibition test, as previously reported, was used to determine the anti-hemolytic activity. Hemolysis was induced by the AAPH radical (150 mM, prepared in PBS) as a positive control. The concentrations of the treatments were the same as in the hemolysis assay plus the AAPH.
# [7] = Hemolytic test; assay type: cell-based; settings: human red blood cells (erythrocytes), pH 7.2; concentration causing 50% hemolysis of human red blood cells, mean ± SD
# Method: The hemolytic activity was assessed using the hemolysis test. Treatments evaluated were prepared in PBS (pH 7.2 ± 0.2) in concentrations ranging from 10, 100, 200, 400, 600, 800, 1000, and 2000 µg/mL; the percent (%) of hemolysis was determined by measuring the Abs at 540 nm for each treatment.
# [8] = tested on: HEP-G2 (human hepatocellular carcinoma) cells; experiment: MTT cell viability assay in HEP-G2 cells; assay type: cell-based; settings: HepG2, 72 h of incubation, mean ± SD
# Method: as §2, §3
# [9] = DPPH scavenging test; settings: 50% decrease of DPPH, 517 nm, mean ± SD
# Method: as §1
# The antioxidant activity was assessed using the DPPH radical assay, where the antioxidant activity (free radical scavenging capacity) was quantified as IC50 in µg/mL. […] The DPPH radical scavenging assay was conducted in a 96-well flat-bottom plastic microplate (Corning®). The percentage inhibition of DPPH at 517 nm was determined using a UV/VIS spectrophotometer and calculated using Formula (7) as follows:(7) DPPH scavenging %=Abs517 Control−Abs517 Sample/Abs517 Control×100
# [10] = tested on: Artemia salina nauplii; experiment: Lethality in Artemia salina; assay type: in vivo; settings: 24 h of exposure, mean ± SD
# Method: Artificial seawater was prepared using 20 g of sea salt and 6 mg of brewer’s yeast dissolved in 500 mL of distilled H2O (pH 7.8). Prior to the assay, the artificial seawater was conditioned by supplying air with an aquarium pump for 24 h. For the hatching of A. salina nauplii, a rectangular glass container (17 × 14 × 7 cm) was adapted, with a dark section where the cysts were incubated and an illuminated area that allows only hatched nauplii to be obtained by means of phototropism. After an incubation period of 48 h under room temperature conditions of 25 ± 2.0 °C (aeration and constant light), the test was carried out using 96-well transparent plastic microplates with a concave bottom (Corning®), in which 20 nauplii and different concentrations of the treatments (10, 100, 200, 400, 600, 800, 1000, and 2000 µg/mL) were deposited in a final volume of 200 µL per well [46]. […] Counting of live and dead larvae in each well of the microplate was performed with the use of a stereoscope microscope. […] A. salina nauplii viability was determined by Formula (6) as follows:(6) A. salina Viability %= Survival Treatment Count/ Survival Control Count×100
SMILES,ABTS IC50 [1],IC50 [2],activity in response to NO production ([3]; 0.98 to 500 µg/mL),"NO production in macrophages compared to LPS ([3]; 0.5 h, 0.00–500 µg/mL)","NO production in macrophages compared to LPS ([3]; 4 h, 0.00–31.25 µg/mL)","NO production in macrophages compared to LPS ([3]; 4 h, 62.50–250 µg/mL)","NO production in macrophages compared to LPS ([3]; 4 h, 500–1000 µg/mL)","NO production in macrophages compared to LPS ([3]; 24 h, 0.00–500 µg/mL)","NO production in macrophages compared to LPS ([3]; BER at 1000 µg/mL, 0.5, 4 and 24 h)",IC50 [4],IC50 [5],IC50 [6],IC50 [7],IC50 [8],DPPH IC50 [9],A. salina LD50 [10]
"COc1ccc2cc3[n+](cc2c1OC)CCc1cc2c(cc1-3)OCO2 [BER, 16,17-dimethoxy-5,7-dioxa-13-azoniapentacyclo [11.8.0.0^2,10.0^4,8.0^15,20]henicosa-1(13),2,4(8),9,14,16,18,20-octaene]","40.29 ± 9.02 ^a,* µg/mL",< 5 µg/mL,immunomodulatory activity,no significant increase in NO production,no increase in NO production,behaved in the same way as LPS,increase in NO production greater than that of LPS,no increase in ON production,increased NO production; also recorded: significantly greater effect on NO production compared to LPS,27.1 ± 7.16 µg/mL,908 ± 31.9 µg/mL,36.9 ± 5.49 µg/mL,713 ± 38 µg/mL,56.9 ± 9.45 µg/mL,"44.80 ± 1.22 ^a,* µg/mL","178.00 µg/mL and 178.00 ± 29.70 ^b,** µg/mL"
"O=C1O[C@H]([C@@H](O)CO)C(O)=C1O [Vitamin C, ascorbic acid]",81.76 ± 6.30 ^b µg/mL,,,,,,,,,,,,,,68.90 ± 3.11 ^b µg/mL,
